# Tested on: mdx−/− mice
# Assay: Diaphragm muscle force measurement after treating mdx−/− mice with peptides comprising NEMO binding domains (Example 3)
# Assay type: in vivo
# Conditions: for treated mice in which force output was higher: diaphragm muscle
# Procedure: In this Example, three week old male mdx−/− mice were treated with various peptides comprising NEMO binding domains. The diaphragm muscles of the mice were then evaluated to determine the ability of the peptides to treat muscle wasting in the mdx mice.
# Three week old mdx−/− mice were treated by intraperitoneal injections with 200 μg of either a wild type peptide (SEQ ID NO 19) comprising a NEMO binding domain or a mutant peptide (SEQ ID NO 20). The mice were injected every three days for a total trial period of 27 days. After 27 days, the mice were sacrificed and the diaphragm muscles were removed.
# The diaphragm muscles were placed in a chamber filled with Ringer solution and perfused continuously with an O2/CO2 mixture. The muscles were then attached using a steel hook to a force transducer and subsequently stimulated at varying frequencies. At each frequency, forces were allowed to reach a steady state before the data was recorded.
# [1] = three week old male mdx−/− mice, 200 μg intraperitoneal every three days for 27 days, FIG. 5
Substance,treated mice in which force output was higher [1],"effect on dystrophic phenotype in affected mice (injection, summary statement on Example 3)","tetanic contractions (force) of diaphragm muscles at various stimulation frequencies (three week old male mdx−/− mice, 200 μg intraperitoneal every three days for 27 days, excised diaphragm in Ringer solution, compared to mutant peptide, FIG. 5)"
mutant peptide: mutant peptide (SEQ ID NO 20) used as comparator to the wild type NEMO binding domain peptide (TALDASALQTE; NBD mutants) [reference compound],one of the three,–,–
wild type peptide: wild type peptide (SEQ ID NO 19) comprising a NEMO binding domain (TALDWSWLQTE; NBD mutants),three of the four,inhibit the dystrophic phenotype,generally higher tentanic contractions

# — US9173920B2, “Methods of treating muscular wasting diseases using NF-KB activation inhibitors” (TheraLogics, Inc., priority 2006, dated 2015)
